# What was measured:
# Format in all cases: in vivo
# Concord grape vines [1] = experiment: Bud break and shoot growth of potted dormant Concord grape vines in the greenhouse (Example 1); conditions: for % bud break (vines with at least one bud break): hydrogen cyanamide 10,000 ppm, 17-0-0 197,100 ppm, 15-0-0 239,060 ppm, ACC 1,000 ppm; for Initial to 50% Bud Break: synchrony of bud break; for 50% Bud Break (DAT): time to 50% bud break
# Excerpt: An aqueous 50% hydrogen cyanamide solution (Sigma-Aldrich, St. Louis, Mo. USA) was used as the source of hydrogen cyanamide. The commercial product, Dormex® contains 50% hydrogen cyanamide (w/v) in water.
# Erger® was used as the source of 15-0-0 fertilizer. (Erger is a registered trademark of Valagro S.P.A., Italy and is available from Helena Chemical Company, Collierville, Tenn., USA). Erger® contains 15% total nitrogen as 3.1% ammoniacal nitrogen, 5.8% nitrate nitrogen and 6.1% urea nitrogen and 3.3% calcium derived from ammonium nitrate, calcium nitrate and urea. As used herein, the term “15-0-0 fertilizer” refers to the Erger® formulation above and all formulations described in International PCT application publication WO/2001/037653A2 by Valagro S.P.A., Italy, which is incorporated, herein, in its entirety.
# CAN-17 was used as the source of 17-0-0 fertilizer. CAN-17 contains 17% total nitrogen as 4.6% ammonium nitrogen and […] nitrate nitrogen and 1.3% urea nitrogen and 8.8% calcium derived from ammonium nitrate and calcium nitrate. CAN-17 is available from J.R. Simplot Company (Boise, Id., USA).
# To assess the ability of mixtures of the invention to promote and synchronize bud break these mixtures were applied to Concord grape vines and examined for bud break (initiation of growth) and subsequent shoot development. Specifically, 1 year old dormant bare rooted Concord grape vines were planted in pots containing Pro-Mix® BX potting soil (Pro-Mix is a registered trademark of and available from Premier Horticulture Ltd.) and pruned to 5 nodes on a single shoot. Aqueous solutions of thidiazuron, hydrogen cyanamide, 15-0-0 fertilizer, 17-0-0 fertilizer and 1-aminocyclopropane-1-carboxylic acid (“ACC”), and mixtures thereof were each applied individually or sequentially or co-applied to the first-year wood of separate Concord grape vines. Plants were grown in the greenhouse for 49 days and evaluated for percent of vines showing bud break, or relief from dormancy, periodically between 7 days and the conclusion of the experiment. […] At 49 days after treatment (DAT), the plants were sacrificed and measured for total number of flower clusters, total new shoot length, longest new shoot, combined new shoot fresh weight and combined new shoot dry weight. New shoot growth is the growth arising from the dormant buds not including the woody growth that was planted and gave rise to the new growth.
# Synergy is calculated by the Abbott method: %Cexp=A+B−(AB/100), where % Cexp is the expected efficacy and in which A and B are the speed of bud break or shoot length or shoot weight given by the single active ingredients. If the ratio between the experimentally observed efficacy of the mixture Cobs and the expected efficacy of the mixture is greater than 1, synergistic interactions are present in the mixture” (Gisi, Synergistic Interaction of Fungicides in Mixtures, The American Phytopathological Society, 86:11, 1273-1279,1996).
# Concord grape vines [2] = experiment: Bud break and harvest weight of endo-dormant two-year-old Concord grape vines in the greenhouse (Example 4); conditions: thidiazuron ppm and 17-0-0 % as in label, 15-0-0 65,880 ppm
# Excerpt: Two-year-old Concord grape vines were purchased commercially. These vines had just lost their leaves and were shipped shortly after they were dug at the nursery. Thus, the vines had not fulfilled their chilling requirement and were considered endo-dormant. The vines were potted individually into one-gallon pots containing ProMix® BX immediately upon receipt and subsequently pruned back to the five proximal buds on the one-year old wood. Within two hours of pruning, treatment solutions were applied using a foam paint brush to the remaining one-year old wood, including the cut end from pruning. Two treatments, water and hydrogen cyanimide, which acted as negative and positive controls, respectively, were included in all studies.
# Treatment solutions were made fresh in water and contained 1% (v/v) non-ionic surfactant. In all cases, two treatment solutions were applied to the plants. Where a single component was used for a treatment, the first application solution was water containing surfactant; in the cases where combination treatments were made to the same plant, the first treatment solution was allowed to dry prior to applying the second.
# The treated plants were kept in a conventional greenhouse under supplemental lighting. Greenhouse conditions were 65:60° F. Day:Night temperature with a 16:8 hour photoperiod. Relief from dormancy was assessed every two days during the course of the study. Dormancy was considered relieved upon the emergence of a green bud. Both the number of ‘broken buds’ per plant and the date of relief of plants from dormancy were assessed. At the close of the study, new growth was removed from each of the treated plants and weighed.
# [3] = test system: Red Flame seedless grape vines; experiment: Bud break and shoot length of field-grown Red Flame seedless grape vines (Example 2); conditions: hydrogen cyanamide 10,000 ppm, thidiazuron 300 ppm, 17-0-0 197,100 ppm
# Experimental: To assess the ability of mixtures of the invention to promote and synchronize bud break these mixtures were applied to field-grown Red Flame seedless grape vines and examined for bud break (initiation of growth) and subsequent shoot development. Thidiazuron, hydrogen cyanamide, 17-0-0 fertilizer, and mixtures thereof were each applied individually or sequentially (co-applied) to the separate spurs of Red Flame seedless grape vines. Plants were evaluated for bud break at 31 days after treatment, for percent bud break and total new shoot length at 48 days after treatment. Results of these evaluations can be seen below in Tables 4 and 5.
# [4] = 49 days post treatment, thidiazuron ppm as in label, other concentrations as in Table 1
# [5] = thidiazuron 300 ppm unless label states other, other concentrations as in Table 1
# [6] = thidiazuron 300 ppm unless label states other, other concentrations as in Table 1, listed as hydrogen cyanamide
compound,measurement,setting,value
"N#CN [Hydrogen Cyanamide, hydrogen cyanamide]",% bud break (vines with at least one bud break),"Concord grape vines [1]; 7 DAT, thidiazuron 300 ppm unless label states other",0%
same,% bud break (vines with at least one bud break),"Concord grape vines [1]; 10 DAT, thidiazuron 300 ppm unless label states other",11.1%
same,% bud break (vines with at least one bud break),"Concord grape vines [1]; 13 DAT, thidiazuron 300 ppm unless label states other",44.4%
same,% bud break (vines with at least one bud break),"Concord grape vines [1]; 15 DAT, thidiazuron 300 ppm unless label states other",66.7%
same,% bud break (vines with at least one bud break),"Concord grape vines [1]; 17 DAT, thidiazuron 300 ppm unless label states other",77.8%
same,% bud break (vines with at least one bud break),"Concord grape vines [1]; 20 DAT, thidiazuron 300 ppm unless label states other",88.9%
same,% bud break (vines with at least one bud break),"Concord grape vines [1]; 22 DAT, thidiazuron 300 ppm unless label states other",88.9%
same,% bud break (vines with at least one bud break),"Concord grape vines [1]; 24 DAT, thidiazuron 300 ppm unless label states other",88.9%
same,% bud break (vines with at least one bud break),"Concord grape vines [1]; 27 DAT, thidiazuron 300 ppm unless label states other",88.9%
same,% bud break (vines with at least one bud break),"Concord grape vines [1]; 29 DAT, thidiazuron 300 ppm unless label states other",88.9%
same,% bud break (vines with at least one bud break),"Concord grape vines [1]; 31 DAT, thidiazuron 300 ppm unless label states other",88.9%
same,% bud break (vines with at least one bud break),"Concord grape vines [1]; 34 DAT, thidiazuron 300 ppm unless label states other",100.0%
same,% bud break (vines with at least one bud break),"Concord grape vines [1]; 36 DAT, thidiazuron 300 ppm unless label states other",100.0%
same,% bud break (vines with at least one bud break),"Concord grape vines [1]; 38 DAT, thidiazuron 300 ppm unless label states other",100.0%
same,% bud break (vines with at least one bud break),"Concord grape vines [1]; 41 DAT, thidiazuron 300 ppm unless label states other",100.0%
same,% bud break (vines with at least one bud break),"Concord grape vines [1]; 43 DAT, thidiazuron 300 ppm unless label states other",100.0%
same,% bud break (vines with at least one bud break),"Concord grape vines [1]; 49 DAT, thidiazuron 300 ppm unless label states other",100.0%
same,Combined Shoot Dry Weight,Concord grape vines [1]; [4],9.0 g
same,Combined Shoot Fresh Weight,Concord grape vines [1]; [4],39.3 g
same,Longest Shoot Length,Concord grape vines [1]; [4],83.8 cm
same,Total # of Flower Clusters,Concord grape vines [1]; [4],0.0
same,Total Shoot Length,Concord grape vines [1]; [4],129.8 cm
same,Dry Weight (g)/25% Bud Break to Harvest (d),Concord grape vines [1]; combined shoot dry weight at 49 DAT normalised by days from 25% bud break to harvest,0.24 g/day
same,Dry Weight (g)/50% Bud Break to Harvest (d),Concord grape vines [1]; combined shoot dry weight at 49 DAT normalised by days from 50% bud break to harvest,0.26 g/day
same,Fresh Weight (g)/50% Bud Break to Harvest (d),Concord grape vines [1]; combined shoot fresh weight at 49 DAT normalised by days from 50% bud break to harvest,1.12 g/day
same,50% Bud Break to Harvest,"Concord grape vines [1]; harvest at day 49, thidiazuron 300 ppm unless label states other, other concentrations as in Table 1",35 days
same,Initial to 50% Bud Break,Concord grape vines [1]; [5],5 days
same,Initial to 50% Bud Break,Concord grape vines [1]; [6],≤ 5 days
same,25% Bud Break (DAT),"Concord grape vines [1]; time to 25% bud break, thidiazuron 300 ppm unless label states other, other concentrations as in Table 1",11 DAT
same,50% Bud Break (DAT),Concord grape vines [1]; [5],14 DAT
same,50% Bud Break (DAT),Concord grape vines [1]; [6],≤ 14 DAT
same,Fresh Shoot Weight (g)/Plant,Concord grape vines [2]; new growth at close of study,31.49 g
same,50% Bud Break (DAT),Concord grape vines [2],16 DAT
same,100% Bud Break (DAT),Concord grape vines [2],33 DAT
same,Initial to 50% Bud Break,Concord grape vines [2],2
same,Number of Buds Broken/Plant,Concord grape vines [2],1.5
same,Broken Buds per plant (Average Buds Broken per Spur),[3]; 31 days after treatment,0.53
same,% Broken Buds,[3]; 48 days after treatment,58.8%
same,Total Shoot Length,[3]; 48 days after treatment,25.2

# — US10757943B2, “Thidiazuron mixtures and uses thereof” (Valent BioSciences LLC, priority 2017, dated 2020)
